Common to all, as to assay: growth of human tumour cells (NCI), 48 h
For experiment [1], the system named is UACC-257 melanoma.
For experiment [2], the system named is KM12 colon.
Experiment [3] deals with CAKI-1 renal.
In experiment [4] the test system is SF-539 CNS.
Experiment [5] deals with HCT-116 colon.
Experiment [6] relates to UO-31 renal.
Experiment [7] deals with LOX IMVI melanoma.
The subject of experiment [8] is MCF7 breast.
Experiment [9] relates to SNB-75 CNS.
Experiment [10] relates to HOP-62 NSCLC.
The subject of experiment [11] is HT29 colon.
Experiment [12] relates to SN12C renal.
Experiment [13] has as its system SK-OV-3 ovarian.

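Protocol summary: plate cells (96-well), add compound at 5 concentrations, incubate 48 h, interpolate endpoints linearly. TGI: total growth inhibition.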 A value given as a limit tells only on which side of the number the result lay.

`COc1ccc(-c2nc3ccc(C)cc3o2)c(OC)c1`: the TGI in [1] worked out at 46.5 µM; in experiment [2], 40.4 µM; in [3], 76.1 µM; in [4], 40.9 µM; in experiment [5], 35.8 µM; in [6], 58.1 µM. Moreover, the TGI is 31 µM in [7]; more than 100 µM in [8]; 54.4 µM in [9]; more than 56 µM in experiment [10]; 30.2 µM in [11]; more than 82.1 µM in experiment [12]. The molecule also displayed a TGI in experiment [13] of more than 100 µM.
On to `COc1cc2c(cc1OC)-c1cc3ccccc3c(=O)n1CCC2`, for which the TGI in [1] is more than 86.1 µM; in experiment [2], 38 µM; in [3], 44.9 µM; in [4], 26 µM; in experiment [5], more than 38.6 µM; in [6], 61.1 µM. The TGI is 13.7 µM in experiment [7]; more than 89.5 µM in [8]; more than 90.3 µM in experiment [9]; more than 75.3 µM in experiment [10]; 41.2 µM in experiment [11]; 78.9 µM in [12]. Also, the TGI in experiment [13] is more than 100 µM.
As for `CS(=O)(=O)C(=Cc1ccccc1Cl)S(C)(=O)=O`, the TGI was more than 100 µM in experiment [1]; more than 46.4 µM in experiment [2]; more than 100 µM in experiment [3]; more than 100 µM in [4]; more than 100 µM in experiment [5]; more than 100 µM in experiment [6]. Further, the TGI in [7], in experiment [8], in experiment [9], in experiment [10], in [11] and in [12] was more than 100 µM in each case. This molecule gave a TGI in experiment [13] of more than 100 µM.
With `CCCCc1ccc(Nc2nc(Cl)c3[nH]cnc3n2)cc1`, the TGI in experiment [1] turned out to be 30.8 µM; in [2], 32 µM; in experiment [3], 54.1 µM; in [4], 32.7 µM; in experiment [5], 29.9 µM; in experiment [6], 72.5 µM. Besides, the TGI in [7] amounted to 26.6 µM; in [8], 37.9 µM; in experiment [9] it was 85.4 µM; in experiment [10], 27.8 µM; in [11] it was 36.3 µM; in [12] it was 49.9 µM. For the same molecule, the TGI in experiment [13] amounted to 99.8 µM.
On to `CCCCNc1nc(SC)nc2nc[nH]c12`, for which the TGI in [1], in experiment [2], in experiment [3], in experiment [4], in [5] and in [6] was more than 100 µM each time. Further, the TGI in [7], in [8], in [9], in experiment [10], in [11] and in experiment [12] was more than 100 µM in each case. In addition, the TGI in [13] stood at 41.9 µM.
As for `COC(=O)[C@]1(c2cc3ccccc3[nH]2)CC2CN(CC(=O)N(C)OC)C1C1OC(C)(C)OC21` (stereo partly drawn), the TGI in [1], in experiment [2], in experiment [3], in experiment [4], in experiment [5] and in experiment [6] was more than 100 µM each time. For the same molecule, the TGI in experiment [7], in [8], in experiment [9], in [10], in experiment [11] and in experiment [12] was more than 100 µM throughout. The molecule also had a TGI in experiment [13] of more than 100 µM.
Regarding `CC[C@H](CCCCC1CC[C@@H]2CC(=O)C[C@H]12)OC` (stereo partly drawn), the TGI in experiment [1], in experiment [2], in experiment [3], in [4], in experiment [5] and in experiment [6] was more than 100 µM throughout. In addition, the TGI in experiment [7], in experiment [8], in [9], in [10], in [11] and in [12] was more than 100 µM throughout. Besides, the TGI in [13] is more than 100 µM.
As for `Cc1ccc(S(=O)(=O)C2=c3ncccc3=C3C(=O)c4ccccc4C(=O)C32)cc1` (stereo not drawn), the TGI in experiment [1] is more than 100 µM; in experiment [2], more than 76.6 µM; in experiment [3] it was more than 100 µM; in [4], 46.1 µM; in experiment [5] it was more than 100 µM; in [6], more than 100 µM. Also, the TGI was more than 100 µM in experiment [7]; more than 100 µM in experiment [8]; more than 100 µM in experiment [9]; 9.14 µM in experiment [10]; more than 100 µM in [11]; more than 100 µM in experiment [12]. The TGI in experiment [13] was more than 100 µM.
As for `O=C(c1nsc(Cl)c1Cl)N1CCCCC1`, the TGI in experiment [1], in [2], in experiment [3], in experiment [4], in experiment [5] and in experiment [6] was more than 100 µM throughout. Moreover, the TGI in [7], in experiment [8], in experiment [9], in experiment [10], in [11] and in experiment [12] was more than 100 µM in each case. Moreover, in experiment [13], the TGI was more than 100 µM.
Regarding `CNC(=O)N(CCC#N)CCN(CCN(C(=O)NC)c1ccccc1)C(=O)NC`, the TGI in [1], in experiment [2], in [3], in experiment [4], in [5] and in [6] was more than 100 µM in each case. Moreover, the TGI in [7], in experiment [8], in [9], in experiment [10], in experiment [11] and in [12] was more than 100 µM each time. This molecule gave a TGI in experiment [13] of more than 100 µM.
As for `Nc1nc(=O)n(C2OC(CO)C(O)C2O)cc1F` (stereo not drawn), the TGI in experiment [1], in experiment [2], in experiment [3], in experiment [4], in experiment [5] and in [6] was more than 100 µM each time. Also, the TGI was more than 38 µM in [7]; more than 100 µM in experiment [8]; more than 56.4 µM in [9]; 0.175 µM in experiment [10]; more than 100 µM in experiment [11]; more than 100 µM in experiment [12]. The same molecule gave a TGI in experiment [13] of more than 100 µM.
Consider `C=CCCCC1(C)CCCCNC1=O` (stereo not drawn), for which the TGI in experiment [1], in experiment [2], in experiment [3], in [4], in [5] and in experiment [6] was more than 10 µM in each case. Besides, the TGI in [7], in experiment [8], in experiment [9], in experiment [10], in experiment [11] and in experiment [12] was more than 10 µM in each case. In addition, in experiment [13], the TGI is more than 10 µM.
As to `Cc1ccc(S(=O)(=O)n2ccn3c(=O)cc(C)nc23)cc1`, the TGI in experiment [1], in experiment [2], in [3], in experiment [4], in experiment [5] and in experiment [6] was more than 10 µM each time. The TGI in experiment [7], in experiment [8], in experiment [9], in [10], in [11] and in [12] was more than 10 µM throughout. This molecule displayed a TGI in experiment [13] of more than 10 µM.
`Cc1cccc(C)c1NC(=S)/N=C/C1=C(O)c2ccccc2C1=O`: the TGI in [1] was more than 88.5 µM; in experiment [2], more than 100 µM; in [3], 68.9 µM; in [4] it was more than 59.9 µM; in experiment [5] it was more than 59.8 µM; in experiment [6], more than 86.1 µM. Besides, the TGI in [7] is more than 100 µM; in experiment [8] it was more than 100 µM; in experiment [9] it was 51.4 µM; in [10], more than 100 µM; in [11], more than 79.2 µM; in [12] it was more than 100 µM. Further, the TGI in experiment [13] was more than 29.3 µM.
Turning to `CC(C)(C)SC1=CCC[C@@H](P(=O)(c2ccccc2)c2ccccc2)[C@@H]2CCC[C@@H]12`, the TGI in [1] was 31.8 µM; in experiment [2] it was 35.5 µM; in experiment [3], 32.9 µM; in experiment [4], 36.5 µM; in experiment [5], 27.3 µM; in [6], 30.2 µM. Further, the TGI in experiment [7] turned out to be 33.5 µM; in experiment [8], 31.1 µM; in experiment [9], 26.5 µM; in experiment [10], 31.8 µM; in experiment [11] it was 28.3 µM; in experiment [12] it was 29.3 µM. The TGI in [13] was 33.8 µM.
For `COc1cc2cc(C(=O)N3CC(COS(C)(=O)=O)c4c3cc([N+](=O)[O-])c3ccccc43)[nH]c2c(OC)c1OC` (stereo not drawn), the TGI was more than 31.6 µM in experiment [1]; more than 31.6 µM in [2]; more than 50 µM in experiment [3]; more than 31.6 µM in experiment [4]; 15.6 µM in [5]; more than 31.6 µM in [6]. The TGI in [7] was more than 100 µM; in experiment [8], more than 31.6 µM; in [9] it was more than 31.6 µM; in experiment [10], more than 31.6 µM; in experiment [11] it was more than 31.6 µM; in [12] it was more than 100 µM. In [13], this molecule had a TGI of more than 100 µM.
As for `O=C1c2c(Br)sc(Br)c2[C@H]2NC(=S)O[C@@H]12`, the TGI was 31.3 µM in [1]; 38.1 µM in [2]; 26.7 µM in experiment [3]; 33.6 µM in [4]; 24.5 µM in experiment [5]; 29.8 µM in experiment [6]. The TGI in [7] turned out to be 30.5 µM; in experiment [8], 31.8 µM; in [9], 34.7 µM; in experiment [10], 34.9 µM; in experiment [11], 33.5 µM; in experiment [12] it was 32.7 µM. Besides, the TGI in experiment [13] came to 33.3 µM.
Regarding `COc1cc(/C=C2\NC(=O)N(/C=C3\C(=O)Oc4ccccc4C3=O)C2=O)ccc1O`, the TGI in experiment [1], in experiment [2], in [3], in experiment [4], in [5] and in [6] was more than 100 µM throughout. The TGI in experiment [7] was more than 100 µM; in [8], more than 100 µM; in experiment [9], 77 µM; in experiment [10] it was more than 100 µM; in experiment [11], more than 100 µM; in experiment [12], more than 100 µM. Besides, the TGI in [13] was more than 100 µM.
In the case of `CC(C)(C)OC(=O)C(C1NC(C(=O)O)C(C)(C)S1)N1C(=O)c2ccccc2C1=O` (stereo not drawn), the TGI in experiment [1], in experiment [2], in experiment [3], in experiment [4], in experiment [5] and in experiment [6] was more than 100 µM each time. Moreover, the TGI in experiment [7], in experiment [8], in experiment [9], in [10], in experiment [11] and in experiment [12] was more than 100 µM each time. In experiment [13], this molecule showed a TGI of more than 100 µM.
Regarding `O=C(O)/C(=C\c1ccccc1)Cc1ccccc1`, the TGI in [1], in experiment [2], in experiment [3], in experiment [4], in [5] and in experiment [6] was more than 100 µM in each case. Further, the TGI in experiment [7], in experiment [8], in experiment [9], in experiment [10], in experiment [11] and in [12] was more than 100 µM each time. In addition, the TGI in [13] is more than 100 µM.
Take `O=S(=O)(Nc1ccccc1S(=O)(=O)c1ccccc1)c1ccccc1`: the TGI in [1], in experiment [2], in [3], in [4], in [5] and in experiment [6] was more than 100 µM throughout. The TGI in [7], in experiment [8], in [9], in [10], in experiment [11] and in experiment [12] was more than 100 µM each time. In experiment [13], this molecule registered a TGI of more than 100 µM.

Values taken from PubChem BioAssay (NCI).
